From PubChem BioAssay (NCI)
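All cell lines were grown in 96-well plates and treated with compound for 48 hours. GI50 marks 50% less growth. Definition used: TGI = concentration required for complete inhibition of growth.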

How the values were obtained:
Assay in all cases: NCI anticancer screen, dose series, 48 h
[1] = test system: SF-539 CNS
[2] = test system: U251 CNS
[3] = test system: TK-10 renal
[4] = test system: SF-268 CNS
[5] = test system: CCRF-CEM leukemia
[6] = test system: SNB-75 CNS
[7] = test system: SNB-19 CNS
[8] = test system: UACC-257 melanoma
[9] = test system: A498 renal
[10] = test system: SW-620 colon

Compound	GI50 [1]	TGI [1]	GI50 [2]	TGI [2]	GI50 [3]	TGI [3]	GI50 [4]	TGI [4]	GI50 [5]	TGI [5]	GI50 [6]	GI50 [7]	TGI [7]	GI50 [8]	TGI [8]	GI50 [9]	TGI [9]	GI50 [10]	TGI [10]	TGI [6]
COc1ccccc1CNCCCN1C(=O)c2ccc3c4c(ccc(c24)C1=O)C(=O)N(CCCCNCCCN)C3=O	1.68 µM	3.19 µM	0.831 µM	2.28 µM	2.62 µM	8.07 µM	1.57 µM	7.27 µM	0.752 µM	5.17 µM	7.13 µM	1.31 µM	2.72 µM	0.698 µM	2.08 µM	3.12 µM	12.8 µM	0.636 µM	2 µM	–
CCOC(=O)C(C)(C)Oc1ccc(/C=C/C(=O)c2ccc(Cl)cc2)cc1	–	34 µM	–	31.9 µM	–	> 100 µM	–	37.1 µM	–	61.9 µM	–	–	37.7 µM	–	41.4 µM	–	52.8 µM	–	28 µM	32.6 µM
COC(C(=O)NCCCCNC(=O)C(OC)c1ccccc1)c1ccccc1 (centres undefined)	–	> 100 µM	–	> 100 µM	–	> 100 µM	–	> 100 µM	–	> 100 µM	–	–	> 100 µM	–	> 100 µM	–	> 100 µM	–	> 100 µM	> 100 µM
CC[N+]1(C)CCC(O)(c2ccc(OC)cc2)C(C(=O)c2ccc(OC)cc2)C1 (centres undefined)	–	32 µM	–	33 µM	–	20.4 µM	–	56 µM	–	4.94 µM	–	–	47.7 µM	–	35.4 µM	–	32.6 µM	–	4.82 µM	27.8 µM
O=C1OC(O)C(Oc2c(Cl)cccc2Cl)=C1Cl (centres undefined)	–	32.3 µM	–	26.8 µM	–	69.1 µM	–	31.3 µM	–	53 µM	–	–	78.1 µM	–	42.1 µM	–	51.1 µM	–	28.3 µM	54.6 µM
COc1ccc(OC)c2c1[nH]c(=O)c1c3ncccc3cn21	3.96 µM	> 100 µM	3.63 µM	27.8 µM	4.07 µM	13.6 µM	4.21 µM	> 100 µM	3.32 µM	> 100 µM	4.39 µM	5.6 µM	> 100 µM	5.05 µM	> 100 µM	3.95 µM	> 100 µM	1.55 µM	5.38 µM	62 µM
COC(=O)c1cc(O)c2c(c1C(=O)OC)C[C@H]1[C@@H]3CC=C4C[C@@H](O)CC[C@]4(C)[C@H]3CC[C@]21C	2.1 µM	6.65 µM	1.93 µM	7.82 µM	3.83 µM	11.8 µM	3.13 µM	13 µM	1.71 µM	4.99 µM	9.75 µM	4.1 µM	23.8 µM	2.54 µM	7.5 µM	3.7 µM	20.1 µM	3.48 µM	17.6 µM	55.9 µM
O=[N+]([O-])C1Cc2ccccc2OC1c1ccccc1 (centres undefined)	–	89.2 µM	–	> 100 µM	–	> 100 µM	–	> 100 µM	–	> 100 µM	–	–	> 100 µM	–	> 100 µM	–	> 100 µM	–	> 100 µM	55.5 µM
CN/N=C(\C)C(CN(C)C)C(c1ccccc1)c1c(O)c2ccccc2oc1=O (centres undefined)	–	> 100 µM	–	> 100 µM	–	> 100 µM	–	> 100 µM	–	> 100 µM	–	–	> 100 µM	–	> 100 µM	–	> 100 µM	–	> 100 µM	> 100 µM
NC(=O)c1cccc(Nc2nccc(Nc3cccc4[nH]ncc34)n2)c1	6.24 µM	> 21.7 µM	9.53 µM	> 25 µM	20.5 µM	> 25 µM	8.45 µM	> 25 µM	9.14 µM	> 25 µM	4.58 µM	12.7 µM	> 25 µM	> 19.2 µM	> 25 µM	5 µM	22.7 µM	9.09 µM	> 25 µM	15.6 µM
COc1ccc(/C=N\Nc2ccc([N+](=O)[O-])cn2)cc1OC	4.37 µM	23.4 µM	3.56 µM	74.2 µM	3.18 µM	7.73 µM	> 100 µM	> 100 µM	> 100 µM	> 100 µM	2.9 µM	27 µM	> 100 µM	> 100 µM	> 100 µM	3.43 µM	59.6 µM	> 100 µM	> 100 µM	16.4 µM
